Patent US9920061B2, “Imidazo[1,5-A]pyrimidinyl carboxamide compounds and their use in the treatment of medical disorders” (Lysosomal Therapeutics Inc., priority 2016, dated 2018)
Converted amounts (≈) assume the structure as drawn.

Assays:
[1] = biological target: T1, glucocerebrosidase (Gcase) (Homo sapiens, UniProt P04062); experiment: Glucocerebrosidase (Gcase) activation assay, 4-methylumbelliferyl-beta-D-glucopyranoside substrate, with saposin C; format: biochemical; conditions: for activation at 0.1 µM: test compound at 0.1 μM, read-out: Percent Gcase Activation, 0.1 μM Test Compound; for activation at 1 µM: test compound at 1.0 μM, read-out: Percent Gcase Activation, 1 μM Test Compound
T1 sequence (P04062 40-536): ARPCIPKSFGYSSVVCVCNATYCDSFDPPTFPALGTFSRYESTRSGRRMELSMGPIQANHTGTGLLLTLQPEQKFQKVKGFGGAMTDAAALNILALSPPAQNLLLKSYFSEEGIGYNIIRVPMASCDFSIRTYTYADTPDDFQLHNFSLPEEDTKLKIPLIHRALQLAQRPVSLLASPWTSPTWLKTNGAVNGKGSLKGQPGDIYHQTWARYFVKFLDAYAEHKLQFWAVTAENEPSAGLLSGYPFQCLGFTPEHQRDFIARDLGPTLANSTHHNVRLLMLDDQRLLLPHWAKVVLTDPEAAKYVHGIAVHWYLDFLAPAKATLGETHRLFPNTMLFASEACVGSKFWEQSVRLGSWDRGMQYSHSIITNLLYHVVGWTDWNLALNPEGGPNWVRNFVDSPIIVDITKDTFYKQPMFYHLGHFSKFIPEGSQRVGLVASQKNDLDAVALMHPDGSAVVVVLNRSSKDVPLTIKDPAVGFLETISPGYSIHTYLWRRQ
How it was run: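 Micellar buffer (176 mM K2HPO4/50 mM citric acid, pH 4.7; 0.32 mM triton, 0.37 mol % PS) holding 10 nM GCase and 100 nM saposin C, pre-incubated with compound 30 min at room temperature. Substrate final 2 mM before mixing; 15 min reaction, glycine pH 12.5 stop, fluorescence 365/440 nm. Screened at 1.0 and 0.1 μM; 8-point, 3-fold dose response.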

[2] = Compound solubility in water; format: physicochemical; conditions: in water

Compound | activation at 0.1 µM [1] [%] | activation at 1 µM [1] [%] | solubility [2] [µg/mL]
Cc1cc(-c2ccc3scnc3c2)nc2c(C(=O)NC(C3CC3)C(F)(F)F)ncn12 (stereo not drawn) [IV-49] | > 20 | > 60 | 0.6 (≈ 1.39 µM)
Cc1cc(-c2nccs2)nc2c(C(=O)NC(C3CC3)C(F)(F)F)ncn12 (stereo not drawn) [IV-50] | 10 to 20 | > 60 | 1.5 (≈ 3.93 µM)
Cc1cc(-c2cnsc2)nc2c(C(=O)NC(C3CC3)C(F)(F)F)ncn12 (stereo not drawn) [IV-51] | > 20 | > 60 | 2.1 (≈ 5.51 µM)
Cc1cc(-c2cnsc2)nc2c(C(=O)N[C@H](C3CC3)C(F)(F)F)ncn12 [IV-52] | 10 to 20 | > 60 | 15.4 (≈ 40.4 µM)
Cc1cc(-c2cnsc2)nc2c(C(=O)N[C@@H](C3CC3)C(F)(F)F)ncn12 [IV-53] | 10 to 20 | > 60 | 13.2 (≈ 34.6 µM)
Cc1cc(-c2cnsc2)nc2c(C(=O)NC(C)(C)C)ncn12 [IV-55] | < 10 | > 60 | 8.2 (≈ 26 µM)
Cc1cc(-c2ccc3ocnc3c2)nc2c(C(=O)NC(C)C(F)(F)F)ncn12 (stereo not drawn) [IV-73] | > 20 | > 60 | 2.1 (≈ 5.39 µM)
Cc1cc(-n2ccc(Cl)n2)nc2c(C(=O)NC(C)C(F)(F)F)ncn12 (stereo not drawn) [IV-74] | < 10 | 30 to 60 | 4.2 (≈ 11.3 µM)
Cc1cc(-c2ccc3c(c2)OCO3)nc2c(C(=O)NC(C)C(F)(F)F)ncn12 (stereo not drawn) [IV-76] | > 20 | > 60 | 1.2 (≈ 3.06 µM)
Cc1cc(-c2ccc3c(c2)OCO3)nc2c(C(=O)N[C@H](C)C(F)(F)F)ncn12 [IV-77] | > 20 | > 60 | 1.3 (≈ 3.31 µM)
Cc1cc(-c2ccc3c(c2)OCO3)nc2c(C(=O)N[C@@H](C)C(F)(F)F)ncn12 [IV-78] | > 20 | > 60 | 3.3 (≈ 8.41 µM)
Cc1cc(-c2cccc(-c3ncncn3)c2)nc2c(C(=O)NC(C3CC3)C(F)(F)F)ncn12 (stereo not drawn) [IV-79] | > 20 | > 60 | 0.5 (≈ 1.1 µM)
Cc1cc(-c2cc(C#N)co2)nc2c(C(=O)NC(C3CC3)C(F)(F)F)ncn12 (stereo not drawn) [IV-81] | 10 to 20 | > 60 | 1 (≈ 2.57 µM)
Cc1cc(-c2occc2C#N)nc2c(C(=O)NC(C3CC3)C(F)(F)F)ncn12 (stereo not drawn) [IV-82] | > 20 | > 60 | 1.9 (≈ 4.88 µM)
Cc1cc(-c2cc(C#N)cs2)nc2c(C(=O)NC(C3CC3)C(F)(F)F)ncn12 (stereo not drawn) [IV-85] | > 20 | > 60 | 5.9 (≈ 14.6 µM)
Cc1cc(-c2csc(C#N)c2)nc2c(C(=O)NC(C3CC3)C(F)(F)F)ncn12 (stereo not drawn) [IV-87] | > 20 | > 60 | 9.2 (≈ 22.7 µM)
Cc1cc(N2CCCN(C(C)C)C2=O)nc2c(C(=O)NC(C3CC3)C(F)(F)F)ncn12 (stereo not drawn) [IV-89] | < 10 | < 30 | 25.6 (≈ 58.4 µM)
CCc1cc(N2CCN(CC(F)(F)F)C2=O)nc2c(C(=O)NC(C3CC3)C(F)(F)F)ncn12 (stereo not drawn) [IV-90] | 10 to 20 | > 60 | 25.6 (≈ 53.5 µM)
Cc1cc(C#N)c(-c2cc(C)n3cnc(C(=O)NC(C4CC4)C(F)(F)F)c3n2)o1 (stereo not drawn) [IV-92] | > 20 | > 60 | 0.3 (≈ 0.744 µM)
Cc1cc(C(=O)Nc2ccccc2)nc2c(C(=O)NC(C3CC3)C(F)(F)F)ncn12 (stereo not drawn) [IV-100] | < 10 | < 30 | 6.2 (≈ 14.9 µM)

Continued, values first:

activation at 0.1 µM [1] [%] | activation at 1 µM [1] [%] | solubility [2] [µg/mL] | Compound
> 20 | > 60 | 0.8 (≈ 2.04 µM) | Cc1cc(-c2ccc(F)cc2)nc2c(C(=O)NC(C3CC3)C(F)(F)F)ncn12 (stereo not drawn) [IV-44]
> 20 | > 60 | 2.5 (≈ 6.37 µM) | Cc1cc(-c2ccc(F)cc2)nc2c(C(=O)N[C@H](C3CC3)C(F)(F)F)ncn12 [IV-45]
> 20 | > 60 | 0.8 (≈ 2.04 µM) | Cc1cc(-c2ccc(F)cc2)nc2c(C(=O)N[C@@H](C3CC3)C(F)(F)F)ncn12 [IV-46]
< 10 | 30 to 60 | 3.8 (≈ 8.81 µM) | Cc1cc(-c2cccc3scnc23)nc2c(C(=O)NC(C3CC3)C(F)(F)F)ncn12 (stereo not drawn) [IV-47]
10 to 20 | > 60 | 0.4 (≈ 0.927 µM) | Cc1cc(-c2cccc3ncsc23)nc2c(C(=O)NC(C3CC3)C(F)(F)F)ncn12 (stereo not drawn) [IV-48]
> 20 | > 60 | 3.7 (≈ 10 µM) | COc1cc(F)cc(-c2cc(C)n3cnc(C(=O)N[C@@H](C)C4CC4)c3n2)c1 [IV-56]
> 20 | > 60 | 1.2 (≈ 3.03 µM) | COc1cc(F)cc(-c2cc(C)n3cnc(C(=O)NC(C)C(F)(F)F)c3n2)c1 (stereo not drawn) [IV-57]
> 20 | > 60 | 2.3 (≈ 5.8 µM) | COc1cc(F)cc(-c2cc(C)n3cnc(C(=O)N[C@H](C)C(F)(F)F)c3n2)c1 [IV-58]
> 20 | > 60 | 2.2 (≈ 5.55 µM) | COc1cc(F)cc(-c2cc(C)n3cnc(C(=O)N[C@@H](C)C(F)(F)F)c3n2)c1 [IV-59]
> 20 | > 60 | 2.3 (≈ 5.21 µM) | Cc1cc(-c2cccc(-c3ncco3)c2)nc2c(C(=O)NC(C3CC3)C(F)(F)F)ncn12 (stereo not drawn) [IV-60]
< 10 | > 60 | 16 (≈ 43.4 µM) | COc1c(F)cccc1-c1cc(C)n2cnc(C(=O)N[C@@H](C)C3CC3)c2n1 [IV-62]
10 to 20 | > 60 | 3.1 (≈ 7.34 µM) | COc1c(F)cccc1-c1cc(C)n2cnc(C(=O)NC(C3CC3)C(F)(F)F)c2n1 (stereo not drawn) [IV-63]
< 10 | 30 to 60 | 21 (≈ 53 µM) | COc1c(F)cccc1-c1cc(C)n2cnc(C(=O)NC(C)C(F)(F)F)c2n1 (stereo not drawn) [IV-64]
< 10 | < 30 | 15.6 (≈ 41.6 µM) | COc1c(C#N)cccc1-c1cc(C)n2cnc(C(=O)N[C@@H](C)C3CC3)c2n1 [IV-65]
< 10 | < 30 | 23.9 (≈ 59.3 µM) | COc1c(C#N)cccc1-c1cc(C)n2cnc(C(=O)NC(C)C(F)(F)F)c2n1 (stereo not drawn) [IV-66]
< 10 | 30 to 60 | 13.5 (≈ 31.4 µM) | COc1c(C#N)cccc1-c1cc(C)n2cnc(C(=O)NC(C3CC3)C(F)(F)F)c2n1 (stereo not drawn) [IV-67]
> 20 | > 60 | 0.7 (≈ 1.86 µM) | COc1cccc(-c2cc(C)n3cnc(C(=O)N[C@@H](C)C4CC4)c3n2)c1C#N [IV-68]
> 20 | > 60 | 1.3 (≈ 3.03 µM) | COc1cccc(-c2cc(C)n3cnc(C(=O)NC(C4CC4)C(F)(F)F)c3n2)c1C#N (stereo not drawn) [IV-69]
> 20 | > 60 | 1.5 (≈ 3.55 µM) | COc1ccc(-c2cc(C)n3cnc(C(=O)NC(C4CC4)C(F)(F)F)c3n2)cc1F (stereo not drawn) [IV-70]
> 20 | > 60 | 1.5 (≈ 3.55 µM) | COc1ccc(F)cc1-c1cc(C)n2cnc(C(=O)NC(C3CC3)C(F)(F)F)c2n1 (stereo not drawn) [IV-71]
> 20 | > 60 | 1.1 (≈ 2.65 µM) | Cc1cc(-c2ccc3ocnc3c2)nc2c(C(=O)NC(C3CC3)C(F)(F)F)ncn12 (stereo not drawn) [IV-72]
> 20 | > 60 | 0.5 (≈ 1.2 µM) | Cc1cc(-c2ccc3c(c2)OCO3)nc2c(C(=O)NC(C3CC3)C(F)(F)F)ncn12 (stereo not drawn) [IV-75]
> 20 | > 60 | 3.7 (≈ 8.87 µM) | Cc1cc(-c2ccc(F)cc2C#N)nc2c(C(=O)NC(C3CC3)C(F)(F)F)ncn12 (stereo not drawn) [IV-80]
> 20 | > 60 | 1.2 (≈ 3.29 µM) | Cc1cc(-c2ccco2)nc2c(C(=O)NC(C3CC3)C(F)(F)F)ncn12 (stereo not drawn) [IV-83]
> 20 | > 60 | 3.2 (≈ 8.78 µM) | Cc1cc(-c2ccoc2)nc2c(C(=O)NC(C3CC3)C(F)(F)F)ncn12 (stereo not drawn) [IV-84]
> 20 | > 60 | 3.6 (≈ 8.88 µM) | Cc1cc(-c2ccc(C#N)s2)nc2c(C(=O)NC(C3CC3)C(F)(F)F)ncn12 (stereo not drawn) [IV-86]
> 20 | > 60 | 0.3 (≈ 0.74 µM) | Cc1cc(-c2ccsc2C#N)nc2c(C(=O)NC(C3CC3)C(F)(F)F)ncn12 (stereo not drawn) [IV-88]
> 20 | > 60 | 2.5 (≈ 5.96 µM) | Cc1sc(C#N)cc1-c1cc(C)n2cnc(C(=O)NC(C3CC3)C(F)(F)F)c2n1 (stereo not drawn) [IV-95]
> 20 | > 60 | 1.5 (≈ 3.7 µM) | Cc1cc(-c2cccc(OC(F)(F)F)n2)nc2c(C(=O)N[C@@H](C)C3CC3)ncn12 [IV-101]
> 20 | > 60 | 7.8 (≈ 18.6 µM) | CCOc1cccc(-c2cc(C)n3cnc(C(=O)NC(C4CC4)C(F)(F)F)c3n2)n1 (stereo not drawn) [IV-102]
